The assay has as its system A375 cell line. The assay is described as follows: Alamar Blue cell viability assay, A375. It counts as cell-based. To be noted: Homo sapiens. On the procedure:
Inhibitory activity on cell proliferation of representative compounds of the invention was determined using an Alamar Blue cell viability assay as described hereafter.
3000 cancer cells in 100 uL of cell culture media were plated in each well of a 96-well clear bottom, black wall cell culture-pretreated plate.
The next day compounds are serially diluted (3-fold in cell culture media) across a 96-well polypropylene mother plate from row A to row F, to yield 6 concentrations (10 uM, 3.3 uM, 1.1 uM, 370 nM, 124 nM and 41 nM) for each test compound. Rows G and H contain only DMSO.
Once titrations are made, the media in plates with cells were disposed and 100 μL of drug dilutions are transferred to plates with cells. After a ninety six-hour incubation at 37° C., 10 uL of resazurin solution from Alamar Blue Cell Viability kit (Invitrogen, Carlsbad, Calif.) was added to the media and cells were incubated at 37° C. for three more hours. At the end of this incubation the production of resofurin was measured using Spectrmax M2 microplate reader (Molecular Devices, Sunnyvale, Calif.)
Background: Resazurin is reduced to fluorescent resorufin, in cell work by metabolically active cells.

Setting [1] is: A-375, cell proliferation inhibition, Alamar Blue, 96 h incubation, read-out: Pharmaceutical activity IC50 A375.
Setting [2] is: A-375, Table 4, cell proliferation inhibition, Alamar Blue, 96 h incubation, read-out: Pharmaceutical activity in A375 cell line IC50.
Setting [3] is: A-375, 96 h, read-out: Pharmaceutical activity in A375 cell line IC50.

Where two headings read alike, the source gives them in different places. Some results are limits rather than exact numbers.

On to `CC(C)NC(=O)c1cc2ccc(N3CCCN(C)CC3)nc2n2c1nc1ccccc12` [Compound 2A, 2-(4-methyl-[1,4]diazepan-1-yl)-1,7,11b-triazabenzo[c]fluorene-6-carboxylic acid isopropylamide], for which, under setting [1], the half-maximal inhibitory concentration (IC50) – broadly, the midpoint of a concentration-inhibition curve – lay within 5 to 10 µM.

For the compound `CC(NC(=O)c1cc2ccc(N3CCCN(C)CC3)nc2n2c1nc1ccccc12)C1CC1` (stereo not drawn) [Compound 2B, 2-(4-Methyl-[1,4]diazepan-1-yl)-1,7,11b-triazabenzo[c]fluorene-6-carboxylic acid (1-cyclopropylethyl)-amide], the IC50 under setting [1] was 5 to 10 µM.

With `CN1CCCN(c2ccc3cc(C(=O)NC4CC4)c4nc5ccccc5n4c3n2)CC1` [Compound 2C, 2-(4-methyl-[1,4]diazepan-1-yl)-1,7,11b-triazabenzo[c]fluorene-6-carboxylic acid cyclopropylamide], under setting [1], the IC50 lay in the range of 1 to 5 µM.

With `CN1CCCN(c2ccc3cc(C(=O)NC4CCOCC4)c4nc5ccccc5n4c3n2)CC1` [Compound 2D, 2-(4-methyl-[1,4]diazepan-1-yl)-1,7,11b-triazabenzo[c]fluorene-6-carboxylic acid (tetrahydropyran-4-yl)-amide], the IC50 under setting [1] is 1 to 5 µM.

Take `CN1CCCN(c2ccc3cc(C(=O)NCC4(C)COC4)c4nc5ccccc5n4c3n2)CC1` [Compound 2F, 2-(4-Methyl-[1,4]diazepan-1-yl)-1,7,11b-triazabenzo[c]fluorene-6-carboxylic acid (3-methyloxetan-3-ylmethyl)-amide]: the IC50 under setting [1] lay in the range of 1 to 5 µM.

Regarding `CN1CCCN(c2ccc3cc(C#N)c4nc5ccccc5n4c3n2)CC1` [Compound 3C, 2-(4-Methyl-[1,4]diazepan-1-yl)-1,7,11b-triaza-benzo[c]fluorene-6-carbonitrile], the half-inhibitory concentration (IC50) under setting [2] was less than 1 µM.

Consider `N#Cc1cc2ccc(N3CCCNCC3)nc2n2c1nc1ccccc12` [Compound 3D, 2-[1,4]Diazepan-1-yl-1,7,11b-triaza-benzo[c]fluorene-6-carbonitrile], for which the 50% inhibitory concentration (IC50) under setting [2] was less than 1 µM.

For `N#Cc1cc2ccc(NCCN3CCOCC3)nc2n2c1nc1ccccc12` [Compound 3E, 2-(2-Morpholin-4-yl-ethylamino)-1,7,11b-triaza-benzo[c]fluorene-6-carbonitrile], the concentration for half-maximal inhibition (IC50) under setting [2] was in the range of 1 to 5 µM.

Regarding `CN(C)C1CCN(c2ccc3cc(C#N)c4nc5ccccc5n4c3n2)C1` (stereo not drawn) [Compound 3F, 2-(3-Dimethylamino-pyrrolidin-1-yl)-1,7,11b-triaza-benzo[c]fluorene-6-carbonitrile], under setting [2], the concentration for half-maximal inhibition (IC50) is less than 1 µM.

Turning to `N#Cc1cc2ccc(NCCn3ccnc3)nc2n2c1nc1ccccc12` [Compound 3G, 2-(2-Imidazol-1-yl-ethylamino)-1,7,11b-triaza-benzo[c]fluorene-6-carbonitrile], the half-inhibitory concentration (IC50) under setting [2] lay in the range of 1 to 5 µM.

Regarding `CN1CCN(c2ccc3cc(C#N)c4nc5ccccc5n4c3n2)CC1` [Compound 3H, 2-(4-Methyl-piperazin-1-yl)-1,7,11b-triaza-benzo[c]fluorene-6-carbonitrile], the IC50 under setting [2] was less than 1 µM.

For the compound `COCCNc1ccc2cc(C#N)c3nc4ccccc4n3c2n1` [Compound 3I, 2-(2-Methoxy-ethylamino)-1,7,11b-triaza-benzo[c]fluorene-6-carbonitrile], under setting [2], the half-inhibitory concentration (IC50) was in the range of 1 to 5 µM.

Consider `CN1CCCN(c2ccc3cc(C(=O)Nc4nccs4)c4nc5ccccc5n4c3n2)CC1` [Compound 4A], for which the IC50 under setting [2] lay in the range of 5 to 10 µM.

`CN1CCCN(c2ccc3cc(C(=O)NC#N)c4nc5ccccc5n4c3n2)CC1` [Compound 4C]: under setting [2], the IC50 was less than 1 µM.

Consider `CNNC(=O)c1cc2ccc(N3CCCN(C)CC3)nc2n2c1nc1ccccc12` [Compound 4D, 2-(4-Methyl-[1,4]diazepan-1-yl)-1,7,11b-triaza-benzo[c]fluorene-6-carboxylic acid N′-methyl-hydrazide], for which, under setting [2], the IC50 was less than 1 µM.

For `[2H]C([2H])([2H])NC(=O)c1cc2ccc(N3CCCN(C)CC3)nc2n2c1nc1ccccc12` [Compound 4E, 2-(4-Methyl-[1,4]diazepan-1-yl)-1,7,11b-triaza-benzo[c]fluorene-6-carboxylic acid methyl-d3-amide], the IC50 under setting [2] lay within 1 to 5 µM.

Consider `CONC(=O)c1cc2ccc(N3CCCN(C)CC3)nc2n2c1nc1ccccc12` [Compound 4F, 2-(4-Methyl-[1,4]diazepan-1-yl)-1,7,11b-triaza-benzo[c]fluorene-6-carboxylic acid methoxy-amide], for which, under setting [2], the IC50 is less than 1 µM.

For `CN1CCN(c2ccc3cc(C(=O)NN)c4nc5ccccc5n4c3n2)CC1` [Compound 5B], the IC50 under setting [2] fell in the range of 5 to 10 µM.

With `CNC(=O)c1cc2ccc(N3CCN(C)CC3)nc2n2c1nc1ccccc12` [Compound 5C], the IC50 under setting [2] was 1 to 5 µM.

For `CC(C)NC(=O)c1cc2ccc(N3CCN(C)CC3)nc2n2c1nc1ccccc12` [Compound 5D], under setting [3], the 50% inhibitory concentration (IC50) lay within 5 to 10 µM.

For the compound `CN1CCN(c2ccc3cc(C(=O)NC4CC4)c4nc5ccccc5n4c3n2)CC1` [Compound 5E, 2-(4-Methyl-piperazin-1-yl)-1,7,11b-triaza-benzo[c]fluorene-6-carboxylic acid cyclopropylamide], the IC50 under setting [2] was 1 to 5 µM.

Consider `CNC(=O)c1cc2ccc(N3CCC[N+](C)(C)CC3)nc2n2c1nc1ccccc12` [Compound 6A, 1,1-Dimethyl-4-(6-methylcarbamoyl-1,7,11b-triaza-benzo[c]fluoren-2-yl)-[1,4]diazepan-1-ium; iodide], for which, under setting [2], the concentration for half-maximal inhibition (IC50) lay in the range of 5 to 10 µM.

Consider `O=C(O)c1cc2cc(F)cnc2n2c1nc1ccccc12` [Compound 7B, 3-Fluoro-1,7,11b-triaza-benzo[c]fluorene-6-carboxylic acid], for which the IC50 under setting [2] was greater than 10 µM.

Consider `CN1CCCN(C(=O)c2cc3cc(F)cnc3n3c2nc2ccccc23)CC1` [Compound 7C, (3-Fluoro-1,7,11b-triaza-benzo[c]fluoren-6-yl)-(4-methyl-[1,4]diazepan-1-yl)-methanone], for which the IC50 under setting [2] is greater than 10 µM.

In the case of `O=C(c1cc2cc(F)cnc2n2c1nc1ccccc12)N1CCCNCC1` [Compound 7D, [1,4]Diazepan-1-yl-(3-fluoro-1,7,11b-triaza-benzo[c]fluoren-6-yl)-methanone], the IC50 under setting [2] was greater than 10 µM.

As for `CN(C)CCNC(=O)c1cc2cc(F)cnc2n2c1nc1ccccc12` [Compound 7F, 3-Fluoro-1,7,11b-triaza-benzo[c]fluorene-6-carboxylic acid (2-dimethylamino-ethyl)-amide], the 50% inhibitory concentration (IC50) under setting [2] was in the range of 1 to 5 µM.

For the compound `O=C(NCCN1CCOCC1)c1cc2cc(F)cnc2n2c1nc1ccccc12` [Compound 7G, 3-Fluoro-1,7,11b-triaza-benzo[c]fluorene-6-carboxylic acid (2-morpholin-4-yl-ethyl)-amide], the 50% inhibitory concentration (IC50) under setting [2] is greater than 10 µM.

With `O=C(NCCN1CCCC1)c1cc2cc(F)cnc2n2c1nc1ccccc12` [Compound 7I, 3-Fluoro-1,7,11b-triaza-benzo[c]fluorene-6-carboxylic acid (2-pyrrolidin-1-yl-ethyl)-amide], the 50% inhibitory concentration (IC50) under setting [2] lay within 1 to 5 µM.

Turning to `CNC(=O)c1cc2c(N3CCCN(C)CC3)ccnc2n2c1nc1ccccc12` [Compound 8B, 4-(4-Methyl-[1,4]diazepan-1-yl)-1,7,11b-triaza-benzo[c]fluorene-6-Carboxylic acid methylamide], the IC50 under setting [2] is less than 1 µM.

Regarding `CNC(=O)c1cc2c(N3C[C@@H](C)N[C@@H](C)C3)ccnc2n2c1nc1ccccc12` [Compound 8D], the 50% inhibitory concentration (IC50) under setting [2] is less than 1 µM.

On to `CC(C)NC(=O)c1cc2ccc(N3CCCNCC3)nc2n2c1nc1ccccc12` [Compound 9B, 2-[1,4]Diazepan-1-yl-1,7,11b-triaza-benzo[c]fluorene-6-carboxylic acid isopropylamide], for which the IC50 under setting [3] was in the range of 1 to 5 µM.

As for `Cc1nnc(-c2cc3ccc(N4CCCN(C)CC4)nc3n3c2nc2ccccc23)o1` [Compound 10E, 2-(4-Methyl-[1,4]diazepan-1-yl)-6-(5-methyl-[1,3,4]oxadiazol-2-yl)-1,7,11b-triaza-benzo[c]fluorine], the 50% inhibitory concentration (IC50) under setting [2] was less than 1 µM.

For `NNC(=O)c1cc2ccc(NCCN3CCOCC3)nc2n2c1nc1ccccc12` [Compound 11C, 2-(2-Morpholin-4-yl-ethylamino)-1,7,11b-triaza-benzo[c]fluorene-6-carboxylic acid hydrazide], the IC50 under setting [2] is 5 to 10 µM.

As for `CNC(=O)c1cc2ccc(NCCN3CCOCC3)nc2n2c1nc1ccccc12` [Compound 11D, 2-(2-Morpholin-4-yl-ethylamino)-1,7,11b-triaza-benzo[c]fluorene-6-carboxylic acid methylamide], the IC50 under setting [2] lay in the range of 1 to 5 µM.

Consider `CN(C)CCNc1ccc2cc(C(=O)NN)c3nc4ccccc4n3c2n1` [Compound 12B, 2-(2-Dimethylamino-ethylamino)-1,7,11b-triaza-benzo[c]fluorene-6-carboxylic acid hydrazide], for which, under setting [2], the concentration for half-maximal inhibition (IC50) fell in the range of 1 to 5 µM.

Turning to `CNC(=O)c1cc2ccc(NCCN(C)C)nc2n2c1nc1ccccc12` [Compound 12C, 2-(2-Dimethylamino-ethylamino)-1,7,11b-triaza-benzo[c]fluorene-6-carboxylic acid methylamide], the 50% inhibitory concentration (IC50) under setting [2] is less than 1 µM.

For `CC(C)NC(=O)c1cc2cnccc2n2c1nc1ccccc12` [Compound 13C, 3,7,11b-Triaza-benzo[c]fluorene-6-carboxylic acid isopropylamide], under setting [2], the half-maximal inhibitory concentration (IC50) lay in the range of 5 to 10 µM.

For the compound `CN(C)CCNC(=O)c1cc2cnccc2n2c1nc1ccccc12` [Compound 13D, 3,7,11b-Triaza-benzo[c]fluorene-6-carboxylic acid (2-dimethylamino-ethyl)-amide], the IC50 under setting [2] is less than 1 µM.

With `COCCCNC(=O)c1cc2cnccc2n2c1nc1ccccc12` [Compound 13E, 3,7,11b-Triaza-benzo[c]fluorene-6-carboxylic acid (3-methoxy-propyl)-amide], under setting [2], the IC50 was in the range of 5 to 10 µM.

The values above are taken from US9951066B2, “Compositions, uses and methods for making them” (Pimera, Inc., priority 2014, dated 2018).
